Measurements as given in patent US11713335B2, “Aminocoumarin compounds and methods of their use” (President and Fellows of Harvard College, priority 2018, dated 2023).
Converted amounts (≈) assume the structure as drawn. Read-outs that look alike come from different tables or passages of the source.

How the values were obtained:
WT E. coli = assay: Minimal inhibitory concentration in wild-type E. coli; type: cell-based, Escherichia coli; conditions: wild-type E. coli, 37° C., 16 hours, read-out: MIC (μM) in WT E. coli
Protocol: General Procedure for Determination of Minimal Inhibitory Concentrations
Overnight cultures (5 mL) of bacterial strains were grown in LB media or TSA media (for S. aureus) at 37° C. and with shaking at 220 rpm until saturation. The overnight culture was diluted serially 1:100 (50 μL in 5 mL sterile media) and then 1:100 (250 μL in 25 mL sterile media). The 25 mL of diluted culture was then dispensed to a sterile 96 well plate (Corning #3370). 198 μL of culture were dispensed into row A and 100 μL of this culture were dispensed into rows B-H. Aminocoumarin compound (DMSO stock) were added to the first row and then the row was mixed by pipetting. 100 μL of culture from row A were transferred to row B and the serial dilution continued until the final 100 μL from row H were discarded. The plate was incubated without shaking in a 37° C. for 16 hours and then read by visible light spectrophotometer (Molecular Devices) at 600 nm. The minimal inhibitory concentration (MIC) was determined as the lowest concentration of compound concentration that inhibited the growth of bacteria.

S. aureus RN4220 = assay: Minimal inhibitory concentration, S. aureus RN4220; type: cell-based; conditions: 16 hour minimal inhibitory concentration at 37° C., read-out: MIC (μM) S. aureus RN4220
Procedure, shortened: (§1)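 MIC, in µM, taken as the lowest compound concentration preventing growth by OD600 after 16 h static incubation at 37 °C. Compound was twofold serially diluted in bacteria grown overnight in LB, or TSA for S. aureus, and diluted 1:100 twice.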

S. aureus MW2 = assay: Minimal inhibitory concentration, S. aureus MW2; type: cell-based; conditions: 16 hour minimal inhibitory concentration at 37° C., read-out: MIC (μM) S. aureus MW2 (MRSA)
Procedure, shortened: as §1

E. cloacae 13047 = assay: Minimal inhibitory concentration, E. cloacae 13047; type: cell-based; conditions: 16 hour minimal inhibitory concentration at 37° C., read-out: MIC (μM) E. cloacae 13047
Procedure, shortened: as §1

A. baumannii 19606 = assay: Minimal inhibitory concentration, A. baumannii 19606; type: cell-based; conditions: 16 hour minimal inhibitory concentration at 37° C., read-out: MIC (μM) A. baumannii 19606
Procedure, shortened: as §1

K. pneumoniae 700721 = assay: Minimal inhibitory concentration, K. pneumoniae 700721; type: cell-based; conditions: 16 hour minimal inhibitory concentration at 37° C., read-out: MIC (μM) K. pneumoniae 700721
Procedure, shortened: as §1

E. coli MC4100 = assay: Minimal inhibitory concentration, E. coli MC4100; type: cell-based; conditions: 16 hour minimal inhibitory concentration at 37° C., read-out: MIC (μM) E. coli MC4100 ara+
Procedure, shortened: as §1

E. coli 25922 = assay: Minimal inhibitory concentration, E. coli 25922; type: cell-based; conditions: 16 hour minimal inhibitory concentration at 37° C., read-out: MIC (μM) E. coli 25922
Procedure, shortened: as §1

[1] = Staphylococcus aureus, RN4220, 16 h
[2] = Staphylococcus aureus, MRSA, 16 h
[3] = Acinetobacter baumannii, 19606, 16 h

Row | SMILES | MIC (WT E. coli; Escherichia coli) [µM] | MIC (S. aureus RN4220; [1]) [µM] | MIC (S. aureus MW2; [2]) [µM] | MIC (E. cloacae 13047; Enterobacter cloacae, 13047) [µM] | MIC (A. baumannii 19606; [3]) [µM] | MIC (K. pneumoniae 700721; Klebsiella pneumoniae, 700721) [µM] | MIC (E. coli MC4100; Escherichia coli, MC4100, 16 h) [µM] | MIC (E. coli 25922; Escherichia coli, 25922, 16 h) [µM] | MIC (WT E. coli) [µM] | MIC (S. aureus RN4220) [µM] | MIC (S. aureus MW2) [µM] | MIC (E. cloacae 13047) [µM] | MIC (A. baumannii 19606) [µM] | MIC (K. pneumoniae 700721) [µM] | MIC (E. coli MC4100) [µM] | MIC (E. coli 25922) [µM]
1 | CO[C@@H]1[C@@H](OC(N)=O)[C@@H](O)[C@H](Oc2ccc3c(O)c(NC(=O)c4ccc(O)cc4)c(=O)oc3c2C)OC1(C)C [Compound 30] | > 300 | 46 (≈ 25 µg/mL) | 46 (≈ 25 µg/mL) | > 100 | > 50 | > 100 | > 200 | > 200 | – | – | – | – | – | – | – | –
2 | CO[C@@H]1[C@@H](OC(N)=O)[C@@H](O)[C@H](Oc2ccc3c(O)c(NC(=O)c4cccc(-c5ccncc5)c4)c(=O)oc3c2C)OC1(C)C [Compound 32] | > 300 | 83 (≈ 50.3 µg/mL) | 41 (≈ 24.8 µg/mL) | > 100 | > 50 | > 100 | > 200 | > 200 | – | – | – | – | – | – | – | –
3 | CO[C@@H]1[C@@H](OC(N)=O)[C@@H](O)[C@H](Oc2ccc3c(O)c(NC(=O)c4cccc(-c5ccccc5N)c4)c(=O)oc3c2C)OC1(C)C [Compound 65] | – | – | – | – | – | – | – | – | 59 (≈ 36.6 µg/mL) | 81 (≈ 50.2 µg/mL) | 40 (≈ 24.8 µg/mL) | >100 | >50 | >100 | 59 (≈ 36.6 µg/mL) | >200
4 | CO[C@@H]1[C@@H](OC(N)=O)[C@@H](O)[C@H](Oc2ccc3c(O)c(NC(=O)c4cccc(-c5cccc(O)c5O)c4)c(=O)oc3c2C)OC1(C)C [Compound 99] | – | – | – | – | – | – | – | – | >300 | 79 (≈ 50.3 µg/mL) | 79 (≈ 50.3 µg/mL) | >100 | >50 | >100 | >200 | >200
5 | CO[C@@H]1[C@@H](OC(N)=O)[C@@H](O)[C@H](Oc2ccc3c(O)c(NC(=O)c4cc(N)cc(-c5ccccc5)c4)c(=O)oc3c2C)OC1(C)C [Compound 89] | – | – | – | – | – | – | – | – | 59 (≈ 36.6 µg/mL) | 20 (≈ 12.4 µg/mL) | 10 (≈ 6.2 µg/mL) | >100 | >50 | >100 | 59 (≈ 36.6 µg/mL) | 81 (≈ 50.2 µg/mL)
6 | COc1ccccc1-c1cccc(C(=O)Nc2c(O)c3ccc(O[C@@H]4OC(C)(C)[C@H](OC)[C@@H](OC(N)=O)[C@H]4O)c(C)c3oc2=O)c1 [Compound 50] | – | – | – | – | – | – | – | – | 40 (≈ 25.4 µg/mL) | 19 (≈ 12.1 µg/mL) | 10 (≈ 6.35 µg/mL) | >100 | >50 | >100 | 40 (≈ 25.4 µg/mL) | 39 (≈ 24.8 µg/mL)
7 | CO[C@@H]1[C@@H](OC(N)=O)[C@@H](O)[C@H](Oc2ccc3c(O)c(NC(=O)c4cccc(-c5ccccc5)c4O)c(=O)oc3c2C)OC1(C)C [Compound 88] | – | – | – | – | – | – | – | – | 89 (≈ 55.2 µg/mL) | >100 | 81 (≈ 50.3 µg/mL) | >100 | >50 | >100 | 89 (≈ 55.2 µg/mL) | 161 (≈ 99.9 µg/mL)
8 | CO[C@@H]1[C@@H](OC(N)=O)[C@@H](O)[C@H](Oc2ccc3c(O)c(NC(=O)c4ccc(O)c(-c5cccc6ccccc56)c4)c(=O)oc3c2C)OC1(C)C [Compound 93] | – | – | – | – | – | – | – | – | 75 (≈ 50.3 µg/mL) | 37 (≈ 24.8 µg/mL) | 19 (≈ 12.7 µg/mL) | >100 | >50 | >100 | 75 (≈ 50.3 µg/mL) | >200
9 | CO[C@@H]1[C@@H](OC(N)=O)[C@@H](O)[C@H](Oc2ccc3c(O)c(NC(=O)c4cccc(-c5ccc(O)c(O)c5)c4)c(=O)oc3c2C)OC1(C)C [Compound 94] | – | – | – | – | – | – | – | – | >300 | 20 (≈ 12.7 µg/mL) | 20 (≈ 12.7 µg/mL) | >100 | >50 | >100 | >200 | >200
10 | CO[C@@H]1[C@@H](OC(N)=O)[C@@H](O)[C@H](Oc2ccc3c(O)c(NC(=O)c4cc5ccccc5[nH]4)c(=O)oc3c2C)OC1(C)C [Compound 16] | – | – | – | – | – | – | – | – | >300 | >100 | >100 | >100 | >50 | >100 | >200 | >200
11 | CO[C@@H]1[C@@H](OC(N)=O)[C@@H](O)[C@H](Oc2ccc3c(O)c(NC(=O)c4cccc(-c5ccc(OC(F)(F)F)cc5)c4)c(=O)oc3c2C)OC1(C)C [Compound 57] | – | – | – | – | – | – | – | – | >300 | 1.45 (≈ 0.998 µg/mL) | 0.91 (≈ 0.627 µg/mL) | >100 | 18 (≈ 12.4 µg/mL) | >100 | >200 | >200
12 | CO[C@@H]1[C@@H](OC(N)=O)[C@@H](O)[C@H](Oc2ccc3c(O)c(NC(=O)c4cccc(Cc5ccccc5)c4)c(=O)oc3c2C)OC1(C)C [Compound 69] | – | – | – | – | – | – | – | – | 89 (≈ 55.1 µg/mL) | 5 (≈ 3.09 µg/mL) | 3 (≈ 1.86 µg/mL) | >100 | >50 | >100 | 89 (≈ 55.1 µg/mL) | 81 (≈ 50.1 µg/mL)
13 | COc1ccc(C(=O)Nc2c(O)c3ccc(O[C@@H]4OC(C)(C)[C@H](OC)[C@@H](OC(N)=O)[C@H]4O)c(C)c3oc2=O)cc1 [Compound 7] | > 300 | 45 (≈ 25.1 µg/mL) | 45 (≈ 25.1 µg/mL) | > 100 | > 50 | > 100 | > 200 | > 200 | – | – | – | – | – | – | – | –
14 | CO[C@@H]1[C@@H](OC(N)=O)[C@@H](O)[C@H](Oc2ccc3c(O)c(NC(=O)c4cccc(-c5ccc([N+](=O)[O-])cc5)c4)c(=O)oc3c2C)OC1(C)C [Compound 24] | – | – | – | – | – | – | – | – | >300 | 5 (≈ 3.25 µg/mL) | 5 (≈ 3.25 µg/mL) | >100 | >50 | >100 | >200 | 154 (≈ 100 µg/mL)
15 | CO[C@@H]1[C@@H](OC(N)=O)[C@@H](O)[C@H](Oc2ccc3c(O)c(NC(=O)c4cccc(-c5ccccc5C(F)(F)F)c4)c(=O)oc3c2C)OC1(C)C [Compound 60] | – | – | – | – | – | – | – | – | >300 | 9 (≈ 6.05 µg/mL) | 5 (≈ 3.36 µg/mL) | >100 | >50 | >100 | >200 | >200
16 | COc1ccc(C(=O)Nc2c(O)c3ccc(O[C@@H]4OC(C)(C)[C@H](OC)[C@@H](OC(N)=O)[C@H]4O)c(C)c3oc2=O)cc1OC [Compound 9] | > 300 | 85 (≈ 50 µg/mL) | 43 (≈ 25.3 µg/mL) | > 100 | > 50 | > 100 | > 200 | > 200 | – | – | – | – | – | – | – | –
17 | CO[C@@H]1[C@@H](OC(N)=O)[C@@H](O)[C@H](Oc2ccc3c(O)c(NC(=O)c4cccc(-c5cccc(F)c5)c4)c(=O)oc3c2C)OC1(C)C [Compound 38] | 26 (≈ 16.2 µg/mL) | 5 (≈ 3.11 µg/mL) | 10 (≈ 6.23 µg/mL) | > 100 | > 50 | > 100 | 26 (≈ 16.2 µg/mL) | 40 (≈ 24.9 µg/mL) | – | – | – | – | – | – | – | –
18 | CO[C@@H]1[C@@H](OC(N)=O)[C@@H](O)[C@H](Oc2ccc3c(O)c(NC(=O)c4ccc5ccn(C)c5c4)c(=O)oc3c2C)OC1(C)C [Compound 70] | – | – | – | – | – | – | – | – | >300 | 86 (≈ 50 µg/mL) | 43 (≈ 25 µg/mL) | >100 | >50 | >100 | >200 | >200
19 | CO[C@@H]1[C@@H](OC(N)=O)[C@@H](O)[C@H](Oc2ccc3c(O)c(NC(=O)c4cc(-c5ccc(F)cc5)c(O)cc4O)c(=O)oc3c2C)OC1(C)C [Compound 84] | – | – | – | – | – | – | – | – | 8 (≈ 5.24 µg/mL) | 5 (≈ 3.27 µg/mL) | 5 (≈ 3.27 µg/mL) | 81 (≈ 53 µg/mL) | >50 | 40 (≈ 26.2 µg/mL) | 8 (≈ 5.24 µg/mL) | 10 (≈ 6.55 µg/mL)
